Source: patent US12655116B2, “Substituted isophthalic acid diamides” (Bayer Aktiengesellschaft, priority 2020, dated 2026)

Tests used:
ALOMY [1] = experiment: Pre-emergence herbicidal action against ALOMY; format: in vivo, Alopecurus myosuroides; details: pre-emergence
In short: (§1)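 Seeds sown in sandy loam, soil-covered; compound sprayed on soil surface pre-emergence. Application: WP/EC, 600–800 l/ha, 0.2% wetting agent. Readout: visual % damage at 3 weeks.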

ECHCG [2] = experiment: Post-emergence herbicidal action against ECHCG; format: in vivo, Echinochloa crus-galli
In short: (§2)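 Percent herbicidal action is rated by eye about 3 weeks after treatment against untreated controls, where 100% means dead plants and 0% means like controls. Plants in sandy loam are sprayed on green parts at the one-leaf stage with aqueous WP or EC preparations at 600 to 800 l/ha plus 0.2% wetting agent.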

ALOMY [3] = experiment: Post-emergence herbicidal action against ALOMY; format: in vivo, Alopecurus myosuroides; details: Alopecurus myosuroides, 504 h, dosage 20 g/ha, visual assessment about 3 weeks after treatment vs untreated controls
In short: as §2

VIOTR [4] = experiment: Pre-emergence herbicidal action against VIOTR; format: in vivo, Viola tricolor
In short: as §1

PHBPU [5] = experiment: Pre-emergence herbicidal action against PHBPU; format: in vivo, Pharbitis purpurea; details: Ipomoea purpurea, 504 h
In short: as §1

MATIN [6] = experiment: Pre-emergence herbicidal action against MATIN; format: in vivo, Matricaria inodora
In short: as §1

VERPE [7] = experiment: Pre-emergence herbicidal action against VERPE; format: in vivo, Veronica persica; details: Veronica persica, 504 h
In short: as §1

AMARE [8] = experiment: Post-emergence herbicidal action against AMARE; format: in vivo, Amaranthus retroflexus; details: Amaranthus retroflexus, 504 h, 20 g/ha, visual assessment about 3 weeks after treatment, 100% = plants have died, 0% = like control plants
In short: as §2

POLCO [9] = experiment: Pre-emergence herbicidal action against POLCO; format: in vivo, Polygonum convolvulus; details: Fallopia convolvulus, 504 h, dosage 80 g/ha
In short: as §1

ECHCG [10] = experiment: Pre-emergence herbicidal action against ECHCG; format: in vivo, Echinochloa crus-galli
In short: as §1

VIOTR [11] = experiment: Post-emergence herbicidal action against VIOTR; format: in vivo, Viola tricolor; details: Viola tricolor, 504 h
In short: as §2

POLCO [12] = experiment: Post-emergence herbicidal action against POLCO; format: in vivo, Polygonum convolvulus; details: dosage 20 g/ha
In short: as §2

MATIN [13] = experiment: Post-emergence herbicidal action against MATIN; format: in vivo, Matricaria inodora
In short: as §2

VERPE [14] = experiment: Post-emergence herbicidal action against VERPE; format: in vivo, Veronica persica; details: Veronica persica, 504 h
In short: as §2

ABUTH [15] = experiment: Post-emergence herbicidal action against ABUTH; format: in vivo, Abutilon theophrasti; details: visual assessment about 3 weeks after treatment vs untreated controls
In short: as §2

ABUTH [16] = experiment: Pre-emergence herbicidal action against ABUTH; format: in vivo, Abutilon theophrasti
In short: as §1

SETVI [17] = experiment: Post-emergence herbicidal action against SETVI; format: in vivo, Setaria viridis
In short: as §2

AVEFA [18] = experiment: Pre-emergence herbicidal action against AVEFA; format: in vivo, Avena fatua; details: 80 g/ha, pre-emergence
In short: as §1

SETVI [19] = experiment: Pre-emergence herbicidal action against SETVI; format: in vivo, Setaria viridis
In short: as §1

DIGSA [20] = experiment: Post-emergence herbicidal action against DIGSA; format: in vivo, Digitaria sanguinalis; details: Digitaria sanguinalis, 504 h
In short: as §2

AMARE [21] = experiment: Pre-emergence herbicidal action against AMARE; format: in vivo, Amaranthus retroflexus
In short: as §1

DIGSA [22] = experiment: Pre-emergence herbicidal action against DIGSA; format: in vivo, Digitaria sanguinalis
In short: as §1

AVEFA [23] = experiment: Post-emergence herbicidal action against AVEFA; format: in vivo, Avena fatua; details: visual assessment about 3 weeks after treatment, 100% = plants have died, 0% = like control plants
In short: as §2

PHBPU [24] = experiment: Post-emergence herbicidal action against PHBPU; format: in vivo, Pharbitis purpurea; details: dosage 20 g/ha
In short: as §2

[25] = Tripleurospermum inodorum, 504 h, dosage 20 g/ha
[26] = Setaria viridis, 504 h, dosage 20 g/ha
[27] = 80 g/ha, scored visually after 3 weeks vs untreated controls (100% = plants have died, 0% = like control plants)

CCNC(=O)c1c(C(F)(F)F)ccc(C(=O)Nc2nnnn2CC)c1C1CC1 [Example 2-287]
pest or weed control at 80 g/ha (ALOMY [1]; Alopecurus myosuroides, 504 h, 80 g/ha, scored visually after 3 weeks vs untreated controls (100% = plants have died, 0% = like control plants)): 90%
pest or weed control at 20 g/ha (ALOMY [1]; Alopecurus myosuroides, 504 h, 20 g/ha, scored visually after 3 weeks, 100% = plants have died, 0% = like control plants): 80%
pest or weed control at 5 g/ha (ECHCG [2]; Echinochloa crus-galli, 504 h, dosage 5 g/ha): 80%
pest or weed control at 20 g/ha (ECHCG [2]; Echinochloa crus-galli, 504 h, dosage 20 g/ha): 80%
pest or weed control at 20 g/ha (ALOMY [3]): 90%
pest or weed control at 20 g/ha (VIOTR [4]; Viola tricolor, 504 h, dosage 20 g/ha): 100%
pest or weed control at 80 g/ha (VIOTR [4]; Viola tricolor, 504 h, dosage 80 g/ha): 100%
pest or weed control at 20 g/ha (PHBPU [5]; dosage 20 g/ha): 80%
pest or weed control at 80 g/ha (PHBPU [5]; dosage 80 g/ha): 80%
pest or weed control at 20 g/ha (MATIN [6]; [25]): 100%
pest or weed control at 80 g/ha (MATIN [6]; Tripleurospermum inodorum, 504 h, dosage 80 g/ha): 100%
pest or weed control at 20 g/ha (VERPE [7]; dosage 20 g/ha): 90%
pest or weed control at 80 g/ha (VERPE [7]; dosage 80 g/ha): 100%
pest or weed control at 20 g/ha (AMARE [8]): 100%
pest or weed control at 80 g/ha (POLCO [9]): 80%
pest or weed control at 20 g/ha (ECHCG [10]; Echinochloa crus-galli, 504 h, 20 g/ha): 90%
pest or weed control at 80 g/ha (ECHCG [10]; Echinochloa crus-galli, 504 h, 80 g/ha): 100%
pest or weed control at 5 g/ha (VIOTR [11]; 5 g/ha): 80%
pest or weed control at 20 g/ha (VIOTR [11]; 20 g/ha): 90%
pest or weed control at 20 g/ha (POLCO [12]; Fallopia convolvulus, 504 h): 100%
pest or weed control at 5 g/ha (MATIN [13]; Tripleurospermum inodorum, 504 h, dosage 5 g/ha): 90%
pest or weed control at 20 g/ha (MATIN [13]; [25]): 90%
pest or weed control at 5 g/ha (VERPE [14]; 5 g/ha): 80%
pest or weed control at 20 g/ha (VERPE [14]; 20 g/ha): 100%
pest or weed control at 5 g/ha (ABUTH [15]; Abutilon theophrasti, 504 h, dosage 5 g/ha): 80%
pest or weed control at 20 g/ha (ABUTH [15]; Abutilon theophrasti, 504 h, dosage 20 g/ha): 80%
pest or weed control at 80 g/ha (ABUTH [16]; Abutilon theophrasti, 504 h, 80 g/ha, scored visually after 3 weeks vs untreated controls (100% = plants have died, 0% = like control plants)): 100%
pest or weed control at 20 g/ha (ABUTH [16]; Abutilon theophrasti, 504 h, dosage 20 g/ha, scored visually after 3 weeks vs untreated controls, 100% = plants have died, 0% = like control plants, read-out: Pre-emergence action against ABUTH (herbicidal activity in percent)): 100%
pest or weed control at 5 g/ha (SETVI [17]; Setaria viridis, 504 h, dosage 5 g/ha): 80%
pest or weed control at 20 g/ha (SETVI [17]; [26]): 90%
pest or weed control at 80 g/ha (AVEFA [18]; Avena fatua, 504 h): 80%
pest or weed control at 20 g/ha (SETVI [19]; [26]): 90%
pest or weed control at 80 g/ha (SETVI [19]; Setaria viridis, 504 h, dosage 80 g/ha): 100%
pest or weed control at 5 g/ha (DIGSA [20]; 5 g/ha): 90%
pest or weed control at 20 g/ha (DIGSA [20]; 20 g/ha): 90%
pest or weed control at 20 g/ha (AMARE [21]; Amaranthus retroflexus, 504 h, 20 g/ha, scored visually after 3 weeks vs untreated controls, 100% = plants have died, 0% = like control plants): 100%
pest or weed control at 80 g/ha (AMARE [21]; Amaranthus retroflexus, 504 h, 80 g/ha, scored visually after 3 weeks vs untreated controls, 100% = plants have died, 0% = like control plants): 100%
pest or weed control at 20 g/ha (DIGSA [22]; Digitaria sanguinalis, 504 h, dosage 20 g/ha): 100%
pest or weed control at 80 g/ha (DIGSA [22]; Digitaria sanguinalis, 504 h, dosage 80 g/ha): 100%

Cc1c(C(=O)Nc2nnnn2C)ccc(C(F)(F)F)c1C(=O)NCC1CC1 [Example 1-28]
Pre-emergence action against ALOMY (herbicidal activity) (ALOMY [1]; [27]): 90%
Post-emergence action against ECHCG in % (ECHCG [2]; dosage 5 g/ha): 80%
Post-emergence action against ECHCG in % (ECHCG [2]; dosage 20 g/ha): 90%
Post-emergence action at 5 g/ha against AVEFA in % (AVEFA [23]; 5 g/ha): 80%
Post-emergence action at 20 g/ha against AVEFA in % (AVEFA [23]; 20 g/ha): 80%
Pre-emergence action against VIOTR in % (VIOTR [4]; dosage 20 g/ha): 100%
Pre-emergence action against VIOTR in % (VIOTR [4]; dosage 80 g/ha): 100%
Pre-emergence action against MATIN in % (MATIN [6]; dosage 20 g/ha): 100%
Pre-emergence action against MATIN in % (MATIN [6]; dosage 80 g/ha): 100%
Pre-emergence action against ECHCG in % (ECHCG [10]; 80 g/ha): 100%
Post-emergence action against POLCO in % (POLCO [12]): 80%
Post-emergence action against MATIN in % (MATIN [13]; dosage 20 g/ha): 80%
Post-emergence action against ABUTH in % (ABUTH [15]; dosage 5 g/ha): 80%
Post-emergence action against ABUTH in % (ABUTH [15]; dosage 20 g/ha): 80%
Pre-emergence action against ABUTH (herbicidal activity) (ABUTH [16]; [27]): 100%
Pre-emergence action against ABUTH (herbicidal activity in percent) (ABUTH [16]; dosage 20 g/ha, scored visually after 3 weeks vs untreated controls, 100% = plants have died, 0% = like control plants): 90%
Post-emergence action against SETVI in % (SETVI [17]; dosage 5 g/ha): 80%
Post-emergence action against SETVI in % (SETVI [17]; dosage 20 g/ha): 80%
Pre-emergence action against AVEFA in % (AVEFA [18]): 100%
Pre-emergence action against SETVI in % (SETVI [19]; dosage 80 g/ha): 100%
Pre-emergence action against AMARE in % (AMARE [21]; 20 g/ha, scored visually after 3 weeks vs untreated controls, 100% = plants have died, 0% = like control plants): 100%
Pre-emergence action against AMARE in % (AMARE [21]; [27]): 100%
Post-emergence action against PHBPU in % (PHBPU [24]): 90%
Pre-emergence action against DIGSA in % (DIGSA [22]; dosage 20 g/ha): 100%
Pre-emergence action against DIGSA in % (DIGSA [22]; dosage 80 g/ha): 100%
